Entries after “also recorded” stand apart in the source; their conditions may differ.
Experiments:
CCRF-CEM = experiment: IC50 of nucleoside drugs and TempN polymer on CCRF-CEM cells; type: cell-based; details: Homo sapiens
Ramos = experiment: IC50 of nucleoside drugs and TempN polymer on Ramos cells; type: cell-based; details: Homo sapiens
Method: The polymer linked to the targeting protein was then mixed with Nanocargo transfection reagent according to the manufacturer's instructions (Tecrea, UK), and added to Ramos cells at a final concentration of 40 nM (polymer concentration). After 96 hours incubation in a humidified atmosphere at 37° C. (5% CO2), WST-1 reagent (Roche, UK) was added to the cells to measure cell growth inhibition (FIG. 42). […] Only when the toxic polymer is targeted to the Ramos cells via CD20 is cell growth inhibited.

FANA template = experiment: FANA reverse transcriptase screen (PCR from cDNA); type: biochemical; details: judged by PCR from the cDNA
Method: ANA and FANA were synthesised using D4YK from DNA primers against a biotinylated template. This was captured onto streptavidin-coated paramagnetic beads and the nascent ANA or FANA strand eluted using two washes in 30 mM NaOH. The single stranded products were neutralised, ethanol precipitated and used as a template to screen a panel of commercial polymerases as well as in-house engineered polymerases for RT activity.
We have learnt that RT-521 must be removed before PCR as even low concentrations of RT-521 inhibit PCR. In this case, the reverse transcription reactions were purified by Exol (NEB) treatment to remove unextended primers and 0.05 volumes (1 μl out of 20 μl reaction) were used as template for 20 μl PCR with FastStart Taq (Roche). If the reactions had been purified by a method which removed RT-521 (e.g. silica column or phenol:chloroform extraction) the PCR for the RT-521 reaction would have been expected to be positive, as observed in other experiments (FIG. 19).

[1] = tested on: arabinosyl-NTPs, DNA template; experiment: Polymerase dilution experiment, ANA synthesis, D4 vs D4K; type: biochemical; details: 0.25 mM each arabinosyl-NTP
Method: In this experiment, the concentration of buffer (1× Thermopol (NEB) buffer), arabinosyl-NTPs (0.25 mM each), primer (200 nM), template (400 nM), the reaction volume ([…]) and extension conditions (1 min 94° C., 30 sec 50° C., 2 min 65° C.) were held constant.

Row | Molecule | IC50 (CCRF-CEM) [nM] | IC50 (Ramos) [nM] | FANA RT activity (FANA template) | further results
1 | Nc1ccn([C@@H]2O[C@H](CO)C(O)C2O)c(=O)n1 (stereo partly drawn) [AraC, 9-beta-D-arabinofuranosyl-cytidine] | 12.9 | 22.7 |  | 
2 | Nc1nc2c(ncn2[C@@H]2O[C@H](CO)C(O)C2O)c(=O)[nH]1 (stereo partly drawn) [AraG, 9-beta-D-arabinofuranosyl-guanosine] | 884 | ~100000 |  | 
3 | Nc1nc(Cl)nc2c1ncn2[C@@H]1O[C@H](CO)[C@@H](O)[C@@H]1F [Clofarabine, 9-beta-D-fluoroarabinosyl-2′chloroadenosine] | 20 | 18 |  | 
4 | Nc1nc(F)nc2c1ncn2[C@@H]1O[C@H](CO)[C@@H](O)[C@@H]1O [Fludarabine, 9-beta-D-arabinofuranosyl-2′fluoroadenosine] | 864 | 1300 |  | 
5 | RT-521: Tgo V93Q, D141A, E143A, A485L, I521L, K726R, E429G; SEQ ID NO:12 (protein, T. go derived RT-521 polymerase) MILDTDYITEDGKPVIRIFKKENGEFKIDYDRNFEPYIYALLKDDSAIEDVKKITAERHGTTVRVVRAEKVKKKFLGRPIEVWKLYFTHPQDQPAIRDKIKEHPAVVDIYEYDIPFAKRYLIDKGLIPMEGDEELKMLAFAIATLYHEGEEFAEGPILMISYADEEGARVITWKNIDLPYVDVVSTEKEMIKRFLKVVKEKDPDVLITYNGDNFDFAYLKKRSEKLGVKFILGREGSEPKIQRMGDRFAVEVKGRIHFDLYPVIRRTINLPTYTLEAVYEAIFGQPKEKVYAEEIAQAWETGEGLERVARYSMEDAKVTYELGKEFFPMEAQLSRLVGQSLWDVSRSSTGNLVEWFLLRKAYERNELAPNKPDERELARRRESYAGGYVKEPERGLWENIVYLDFRSLYPSIIITHNVSPDTLNREGCGEYDVAPQVGHKFCKDFPGFIPSLLGDLLEERQKVKKKMKATIDPIEKKLLDYRQRLIKILANSFYGYYGYAKARWYCKECAESVTAWGRQYLETTIREIEEKFGFKVLYADTDGFFATIPGADAETVKKKAKEFLDYINAKLPGLLELEYEGFYKRGFFVTKKKYAVIDEEDKITTRGLEIVRRDWSEIAKETQARVLEAILKHGDVEEAVRIVKEVTEKLSKYEVPPEKLVIYEQITRDLKDYKATGPHVAVAKRLAARGIKIRPGTVISYIVLKGSGRIGDRAIPFDEFDPAKHRYDAEYYIENQVLPAVERILRAFGYRKEDLRYQKTRQVGLGAWLKPKT |  |  | does have FANA RT activity; also recorded: effective FANA reverse transcriptase | 
6 | D4: prior art TgoT-derived RNA polymerase with E664Q, SEQ ID NO:3 (protein, Prior art T. gorgonarius (Tgo) derived polymerase D4 with mutated patch 10 region) MILDTDYITEDGKPVIRIFKKENGEFKIDYDRNFEPYIYALLKDDSAIEDVKKITAERHGTTVRVVRAEKVKKKFLGRPIEVWKLYFTHPQDQPAIRDKIKEHPAVVDIYEYDIPFAKRYLIDKGLIPMEGDEELKMLAFAIATLYHEGEEFAEGPILMISYADEEGARVITWKNIDLPYVDVVSTEKEMIKRFLKVVKEKDPDVLITYNGDNFDFAYLKKRSEKLGVKFILGREGSEPKIQRMGDRFAVEVKGRIHFDLYPVIRRTINLPTYTLEAVYEAIFGQPKEKVYAEEIAQAWETGEGLERVARYSMEDAKVTYELGKEFFPMEAQLSRLVGQSLWDVSRSSTGNLVEWFLLRKAYERNELAPNKPDERELARRRESYAGGYVKEPERGLWENIVYLDFRSLYPSIIITHNVSPDTLNREGCEEYDVAPQVGHKFCKDFPGFIPSLLGDLLEERQKVKKKMKATIDPIEKKLLDYRQRLIKILANSFYGYYGYAKARWYCKECAESVTAWGRQYIETTIREIEEKFGFKVLYADTDGFFATIPGADAETVKKKAKEFLDYINAKLPGLLELEYEGFYKRGFFVTKKKYAVIDEEDKITTRGLEIVRRDWSEIAKETQARVLEAILKHGDVEEAVRIVKEVTEKLSKYEVPTQHLVIHQQITRALNDYKAIGPHVAVAKRLAARGIKIRPGTVISYIVLKGSGRIGDRAIPFDEFDPAKHKYDAEYYIENQVLPAVERILRAFGYRKEDLRYQKTRQVGLGAWLKPKT |  |  |  | full-length (+57 nt) ANA product at 75 nM polymerase ([1]; 75 nM polymerase): no full-length product; full-length (+57 nt) ANA product at 300 nM polymerase ([1]; 300 nM polymerase): very little full-length

Now from value to molecule, other results behind:

Row | IC50 (CCRF-CEM) [nM] | IC50 (Ramos) [nM] | FANA RT activity (FANA template) | Molecule | further results
7 | 11.7 | 1.6 |  | Nc1ccn([C@@H]2O[C@H](CO)C(O)C2(F)F)c(=O)n1 (stereo partly shown) [GemC, 2′2′-difluorodeoxycytidine] | 
8 |  |  | weak FANA RT activity | Therminator: 9° N exo−: A485L polymerase, commercial (protein, listed as Thermococcus gorgonarius) MILDTDYITEDGKPVIRIFKKENGEFKIDYDRNFEPYIYALLKDDSAIEDVKKITAERHGTTVRVVRAEKVKKKFLGRPIEVWKLYFTHPQDVPAIRDKIKEHPAVVDIYEYDIPFAKRYLIDKGLIPMEGDEELKMLAFDIETLYHEGEEFAEGPILMISYADEEGARVITWKNIDLPYVDVVSTEKEMIKRFLKVVKEKDPDVLITYNGDNFDFAYLKKRSEKLGVKFILGREGSEPKIQRMGDRFAVEVKGRIHFDLYPVIRRTINLPTYTLEAVYEAIFGQPKEKVYAEEIAQAWETGEGLERVARYSMEDAKVTYELGKEFFPMEAQLSRLVGQSLWDVSRSSTGNLVEWFLLRKAYERNELAPNKPDERELARRRESYAGGYVKEPERGLWENIVYLDFRSLYPSIIITHNVSPDTLNREGCEEYDVAPQVGHKFCKDFPGFIPSLLGDLLEERQKVKKKMKATIDPIEKKLLDYRQRLIKILANSFYGYYGYAKARWYCKECAESVTAWGRQYIETTIREIEEKFGFKVLYADTDGFFATIPGADAETVKKKAKEFLDYINAKLPGLLELEYEGFYKRGFFVTKKKYAVIDEEDKITTRGLEIVRRDWSEIAKETQARVLEAILKHGDVEEAVRIVKEVTEKLSKYEVPPEKLVIYEQITRDLKDYKATGPHVAVAKRLAARGIKIRPGTVISYIVLKGSGRIGDRAIPFDEFDPAKHKYDAEYYIENQVLPAVERILRAFGYRKEDLRYQKTRQVGLGAWLKPKT | 
9 |  |  | robust FANA RT activity | RT-521K: Tgo V93Q, D141A, E143A, A485L, I521L, E664K, K726R, A385V; SEQ ID NO:14 (protein, T. go derived polymerase designated RT-521K) MILDTDYITEDGKPVIRIFKKENGEFKIDYDRNFEPYIYALLKDDSAIEDVKKITAERHGTTVRVVRAEKVKKKFLGRPIEVWKLYFTHPQDQPAIRDKIKEHPAVVDIYEYDIPFAKRYLIDKGLIPMEGDEELKMLAFAIATLYHEGEEFAEGPILMISYADEEGARVITWKNIDLPYVDVVSTEKEMIKRFLKVVKEKDPDVLITYNGDNFDFAYLKKRSEKLGVKFILGREGSEPKIQRMGDRFAVEVKGRIHFDLYPVIRRTINLPTYTLEAVYEAIFGQPKEKVYAEEIAQAWETGEGLERVARYSMEDAKVTYELGKEFFPMEAQLSRLVGQSLWDVSRSSTGNLVEWFLLRKAYERNELAPNKPDERELARRRESYVGGYVKEPERGLWENIVYLDFRSLYPSIIITHNVSPDTLNREGCGEYDVAPQVGHKFCKDLPGFIPSLLGDLLEERQKVKKKMKATIDPIEKKLLDYRQRLIKILANSFYGYYGYAKARWYCKECAESVTAWGRQYLETTIREIEEKFGFKVLYADTDGFFATIPGADAETVKKKAKEFLDYINAKLPGLLELEYEGFYKRGFFVTKKKYAVIDEEDKITTRGLEIVRRDWSEIAKETQARVLEAILKHGDVEEAVRIVKEVTEKLSKYEVPPEKLVIYKQITRDLKDYKATGPHVAVAKRLAARGIKIRPGTVISYIVLKGSGRIGDRAIPFDEFDPAKHRYDAEYYIENQVLPAVERILRAFGYRKEDLRYQKTRQVGLGAWLKPKT | 
10 |  |  | weak RT activity | Dpo4: commercial DNA polymerase (protein, UniProt Q97W02 1-352, looked up) DNA polymerase IV: MIVLFVDFDYFYAQVEEVLNPSLKGKPVVVCVFSGRFEDSGAVATANYEARKFGVKAGIPIVEAKKILPNAVYLPMRKEVYQQVSSRIMNLLREYSEKIEIASIDEAYLDISDKVRDYREAYNLGLEIKNKILEKEKITVTVGISKNKVFAKIAADMAKPNGIKVIDDEEVKRLIRELDIADVPGIGNITAEKLKKLGINKLVDTLSIEFDKLKGMIGEAKAKYLISLARDEYNEPIRTRVRKSIGRIVTMKRNSRNLEEIKPYLFRAIEESYYKLDKRIPKAIHVVAVTEDLDIVSRGRTFPHGISKETAYSESVKLLQKILEEDERKIRRIGVRFSKFIEAIGLDKFFDT | 
